Source: patent publication US5888993A, “Vanadium compounds in the treatment of elevated blood sugar levels” (The University of British Columbia, priority 1997, dated 1999)
Several values for one entry are separate records, joined by “and”; a condition that tells them apart may be missing. Identical values can stand only once.

How the values were obtained:
[1] = test system: STZ-diabetic rats; test: Comparison of BMOV and ETHYLBMOV, plasma glucose and insulin in STZ-diabetic rats; type: in vivo, rat; conditions: 0.6 mmol kg^-1, one oral gavage, 24 hour period
Procedure: Animal studies were conducted in STZ-diabetic rats comparing doses of 0.6 mmol kg^-1 for VO(ma)2 (BMOV) and VO(ema)2 (ETHYLVMOV). FIGS. 8 and 9 respectively show plasma glucose and plasma insulin values recorded over 24 hour periods after one oral gavage of a water solution of either BMOV or ETHYLBMOV, in order to compare their efficacies.

[2] = test system: diabetic rats; test: Comparative testing, plasma glucose after oral gavage in STZ diabetic rats; type: in vivo, male wistar rats; conditions: oral gavage 1 mmol/kg
Procedure: Diabetes was induced in all animals by a single intravenous injection of streptozotocin (STZ) 60 mg/kg in 0.9% NaCl via the tail vein. Three days after STZ injection, blood was collected from the tail by nicking the tail tip and expressing the blood into heparinized capillary tubes. Blood was centrifuged at 20,000 g for 10 minutes to separate the plasma. Glucose analysis was done immediately on the plasma sample using a Boehringer Mannheim kit. […] One week after STZ injection animals were randomly divided into 3 pairs of rats. Each pair of rats received by oral gavage 1 mmol/kg of BMOV or VO(Sal)2 or VO(acac)2, suspended in 3% acacia.

[3] = test system: red blood cells; conditions: cytoplasm; cited from earlier work
[4] = test system: rats made diabetic with streptozoticin (STZ); conditions: oral / drinking water; cited from earlier work
[5] = cited from earlier work
[6] = in vivo; cited from earlier work
[7] = in vivo; cited from earlier work; remark: listed apart in the source
[8] = test system: Na^+ -K^+ ATPase; conditions: cited from earlier work
[9] = test system: rat adipocytes; conditions: in vitro; cited from earlier work
[10] = test system: spontaneously hypertensive rats (SHR); test: Blood pressure reduction by vanadyl sulphate, spontaneously hypertensive rats; type: in vivo, rat; conditions: for systolic blood pressure / hypertension, prevention: 75-125 mg/kg/day in drinking water
Procedure: (§1) The insulin resistant spontaneously hypertensive rat was used as the experiment model and the vanadyl form of vanadium as the experimental intervention. […] Rats, procured at 4 weeks of age, were divided
(§2) into 4 groups: SHR (untreated), SHRV (treated), WKY (untreated), WKYV (treated). Chronic vanadyl sulfate treatment (0.75 mg/ml ad libitum in the drinking water) was started on the SHRV and WKYV groups at 5 weeks of age. After week 8, when hypertension becomes fully manifest in the SHR, weekly measurements of plasma insulin and systolic blood pressure (tail cuff method) were done on all four groups.
(§3) At week 11, the untreated control SHR and WKY groups from the prevention study were further subdivided and half the animals in each group were started on oral vanadyl sulfate treatment. This was done to observe the reversal effects of vanadyl, if any, after the SHR had become hypertensive. […] A direct blood pressure reading done in all groups at termination validated the earlier indirect measurements. Vanadyl sulfate prevented as well as reversed hypertention in the hyperinsulinemic spontaneously hypertensive rat, a model that closely resembles human essential hypertension. Besides establishing further the role that insulin resistance/hyperinsulinemia may play in the development of high blood pressure, this study also indicated a possible therapeutic role for vanadyl sulfate in hypertensive, hyperinsulinemic subjects.

[11] = test system: Wistar Kyoto (WKY) rats; test: Blood pressure study with vanadyl sulphate, normotensive Wistar Kyoto rats; type: in vivo, rat; conditions: for changes in normotensive animals, prevention: WKYV; for effect in Wistar Kyoto rats, reversal: WKYV1, treatment from week 11
Procedure: as §1, §2, §3

[12] = test system: diabetic rats; test: Comparison of BMOV and vanadyl kojate, acute time course of plasma glucose, rats made diabetic with STZ; type: in vivo, rat; design: plasma glucose level: unit not given here
Procedure: Using BMOV and Vanadyl Kojate as prepared in Examples 1 and 2 above, the relative efficacy of the two compounds was assessed using rats made diabetic with STZ. Again the animals were divided into responder and non-responder groups. For a 0.063 mmol V/kg ip injection, BMOV gave a 50:50 split between responder and non-responder groups whereas for vanadyl kojate the ratio was 60:40. On oral gavage of 0.55 mmol V/kg the responder:non-responder ratios were 50:50 and 57:43 respectively (n=10). However over a 12 day test period, there was a 100% response in terms of blood glucose reduction for diabetic rats receiving vanadyl kojate orally.

[13] = log p (partition coefficient); type: physicochemical
[14] = test system: diabetic rats; test: Glucose time course after gavage of ammonium bis(maltolato)dioxovanadate in STZ diabetic rats; type: in vivo, male Wistar rats; conditions: 0.55 mmoles/kg gavage
Procedure: Six male Wistar rats, weighing 175-200 gm, were made diabetic by the intravenous injection of 60 mg/kg of streptozotocin dissolved in 0.9% saline via the tail vein. Seven days after the injection the rats were diabetic having an average glucose concentration of 24.20 mM. 0.55 mmoles/kg of the ammonium salt of bis(maltolato)dioxovanadate suspended in 3% acacia was gavaged into the rats. Blood was collected and analyzed for glucose as a function of time.

[15] = 0 h, individual rats (two per drug)
[16] = SHRV, 75-125 mg/kg/day, weeks 8-12

Bis(ethylmaltolato)oxovanadium(IV) [ETHYLBMOV]
plasma glucose, difference BMOV vs ETHYLBMOV [1]: statistically insignificant
plasma insulin, difference BMOV vs ETHYLBMOV [1]: statistically insignificant

CC(=O)/C=C(/C)[O-].CC(=O)/C=C(/C)[O-].[O]=[V+2] [VO(acac)2, Bis(acetylacetonate)oxovanadium(IV)]
plasma glucose level [2, 15]: 23.87 mM and 22.74 mM
plasma glucose level ([2]; 2 h, individual rats): 22.91 mM and 24.5 mM
plasma glucose level ([2]; 4 h, individual rats): 22.37 mM and 22.89 mM
plasma glucose level ([2]; 6 h, individual rats): 23.96 mM and 22.94 mM
plasma glucose level ([2]; 8 h, individual rats): 27.19 mM and 23.65 mM
plasma glucose level ([2]; 12 h, individual rats): 19.13 mM and 18.86 mM
plasma glucose level ([2]; 24 h, individual rats): 2.43 mM
death ([2]; 24 h, rat 5): dead

[O]=[V]([O-])([O-])[O-] [vanadate]
reduction of vanadate in red blood cells [3]: reduced to vanadium (IV)
blood glucose [4]: decreased the elevated blood glucose
cardiac performance / secondary complications of diabetes [4]: prevented the depression of cardiac performance
in vivo reduction [5]: reduced in vivo to vanadyl
toxicity [6]: toxic
absorption from the gastrointestinal tract [7]: poorly absorbed

[Na+].[Na+].[Na+].[O]=[V]([O-])([O-])[O-] [Sodium orthovanadate]
inhibition of Na^+ -K^+ ATPase [8]: potent inhibitor

[O]=[V+2] [vanadyl ion]
insulin-like stimulation of glucose oxidation [9]: insulin-like stimulation of glucose oxidation

O=S(=O)([O-])[O-].[O]=[V+2] [vanadyl sulfate]
hypertension / blood pressure, reversal ([10]; SHRV1, treatment from week 11): reversed hypertension
plasma insulin, reversal ([10]; SHRV1, treatment from week 11): lowering their plasma insulin to control values
hypertension / blood pressure, reversal ([10]; SHRV1, treatment from week 11, listed as vanadyl): reduce the blood pressure
systolic blood pressure / hypertension, prevention ([10]; SHRV, weeks 8-12): lowered both plasma insulin and systolic blood pressure
systolic blood pressure / hypertension, prevention ([10]; SHRV, weeks 8-12, listed as vanadyl): prevents the onset of hypertension
plasma glucose levels [10, 16]: without causing any change in the plasma glucose levels
plasma insulin, prevention [10, 16]: lowered both plasma insulin and systolic blood pressure
gastrointestinal, renal or hepatic toxicity ([10]; treated animals, 75-125 mg/kg/day, entire experimental period): No gastrointestinal, renal or hepatic toxicity
changes in normotensive animals, prevention [11]: No changes were seen
effect in Wistar Kyoto rats, reversal [11]: no effect
effect in Wistar Kyoto rats, reversal ([11]; listed as vanadyl): no effect is observed
changes in normotensive animals, prevention ([11]; listed as vanadyl): No change is observed
adverse effect on normal animals (hypotension) ([11]; normal animals): no adverse effect on normal animals
blood glucose [4]: lowers blood glucose and blood lipids
cardiac performance / secondary complications of diabetes [4]: prevents secondary complications of diabetes such as cataracts and cardiac dysfunction
toxicity [6]: less toxic than the vanadate form of vanadium
absorption from the gastrointestinal tract [7]: poorly absorbed

[O]=[V-2]12([O]C3=COC(CO)=CC3=[O+]1)[O]C1=COC(CO)=CC1=[O+]2 [vanadyl kojate, Bis(kojato)oxovanadium(IV)]
plasma glucose level ([12]; i.p. 0.063 mmol/kg, nonresponders (DTN), 0 h): 20.86
plasma glucose level ([12]; i.p. 0.063 mmol/kg, nonresponders (DTN), 1 h): 18.55
plasma glucose level ([12]; i.p. 0.063 mmol/kg, nonresponders (DTN), 2 h): 16.62
plasma glucose level ([12]; i.p. 0.063 mmol/kg, nonresponders (DTN), 4 h): 17.37
plasma glucose level ([12]; i.p. 0.063 mmol/kg, nonresponders (DTN), 6 h): 16.62
plasma glucose level ([12]; i.p. 0.063 mmol/kg, nonresponders (DTN), 8 h): 15.49
plasma glucose level ([12]; i.p. 0.063 mmol/kg, nonresponders (DTN), 12 h): 18.24
plasma glucose level ([12]; i.p. 0.063 mmol/kg, nonresponders (DTN), 24 h): 18.77
plasma glucose level ([12]; i.p. 0.063 mmol/kg, responders (DTR), 0 h): 17.94
plasma glucose level ([12]; i.p. 0.063 mmol/kg, responders (DTR), 1 h): 14.75
plasma glucose level ([12]; i.p. 0.063 mmol/kg, responders (DTR), 2 h): 10.17
plasma glucose level ([12]; i.p. 0.063 mmol/kg, responders (DTR), 4 h): 9.26
plasma glucose level ([12]; i.p. 0.063 mmol/kg, responders (DTR), 6 h): 8.73
plasma glucose level ([12]; i.p. 0.063 mmol/kg, responders (DTR), 8 h): 7.4
plasma glucose level ([12]; i.p. 0.063 mmol/kg, responders (DTR), 12 h): 10.37
plasma glucose level ([12]; i.p. 0.063 mmol/kg, responders (DTR), 24 h): 13.28
plasma glucose level ([12]; oral gavage 0.55 mmol/kg, nonresponders (DTN), 0 h): 23.08
plasma glucose level ([12]; oral gavage 0.55 mmol/kg, nonresponders (DTN), 1 h): 21.18
plasma glucose level ([12]; oral gavage 0.55 mmol/kg, nonresponders (DTN), 2 h): 21.51
plasma glucose level ([12]; oral gavage 0.55 mmol/kg, nonresponders (DTN), 4 h): 20.57
plasma glucose level ([12]; oral gavage 0.55 mmol/kg, nonresponders (DTN), 6 h): 18.2
plasma glucose level ([12]; oral gavage 0.55 mmol/kg, nonresponders (DTN), 8 h): 19.06
plasma glucose level ([12]; oral gavage 0.55 mmol/kg, nonresponders (DTN), 12 h): 18.81
plasma glucose level ([12]; oral gavage 0.55 mmol/kg, nonresponders (DTN), 24 h): 25.0
plasma glucose level ([12]; oral gavage 0.55 mmol/kg, responders (DTR), 0 h): 15.75
plasma glucose level ([12]; oral gavage 0.55 mmol/kg, responders (DTR), 1 h): 12.5
plasma glucose level ([12]; oral gavage 0.55 mmol/kg, responders (DTR), 2 h): 10.1
plasma glucose level ([12]; oral gavage 0.55 mmol/kg, responders (DTR), 4 h): 7.96
plasma glucose level ([12]; oral gavage 0.55 mmol/kg, responders (DTR), 6 h): 6.6
plasma glucose level ([12]; oral gavage 0.55 mmol/kg, responders (DTR), 8 h): 6.87
plasma glucose level ([12]; oral gavage 0.55 mmol/kg, responders (DTR), 12 h): 6.01
plasma glucose level ([12]; oral gavage 0.55 mmol/kg, responders (DTR), 24 h): 6.74
food and fluid demand ([12]; oral, 12 day test period): significantly reduced
response in terms of blood glucose reduction ([12]; oral, 12 day test period): 100%
log p [13]: 0.012

O=Cc1ccccc1[O-].O=Cc1ccccc1[O-].[O]=[V+2] [VO(Sal)2, Bis(salicylaldehyde)oxovanadium(IV)]
plasma glucose level [2, 15]: 21.09 mM and 21.12 mM
plasma glucose level ([2]; 2 h, individual rats): 22.77 mM and 22.31 mM
plasma glucose level ([2]; 4 h, individual rats): 20.18 mM and 21.74 mM
plasma glucose level ([2]; 6 h, individual rats): 20.67 mM and 21.85 mM
plasma glucose level ([2]; 8 h, individual rats): 21.57 mM and 21.59 mM
plasma glucose level ([2]; 12 h, individual rats): 19.24 mM and 19.74 mM
plasma glucose level ([2]; 24 h, individual rats): 18.73 mM and 18.64 mM

Cc1occc(=O)c1[O-].Cc1occc(=O)c1[O-].[NH4+].[O]=[V+]=[O] [Ammonium bis(maltolato)dioxovanadate]
reduction of elevated glucose levels, in words [14]: effective in reducing the elevated glucose levels
Glucose ([14]; 0 h): 24.2 mM
Glucose ([14]; 1 h): 24.4 mM
Glucose ([14]; 2 h): 25.5 mM
Glucose ([14]; 4 h): 24.7 mM
Glucose ([14]; 8 h): 22.3 mM
Glucose ([14]; 12 h): 20.1 mM
Glucose ([14]; 24 h): 14.9 mM
